From US8410049B2, “Methods and kits for preventing hypoglycemia” (Cebix, priority 2009, dated 2013)

How the values were obtained:
[1] = tested on: type 1 diabetes patients with peripheral neuropathy; test: Clinical laboratory evaluation: hematology, clinical chemistries, urinalysis; assay type: in vivo, human; conditions: following the study treatment
Description: Before starting the study, the investigator supplied the Sponsor with a list of the normal laboratory ranges and units of measurement for the laboratory variables to be determined during the study at the site. All abnormal laboratory (those out of the normal range) values required comments on the CRF, regardless of the clinical significance: • Error—Include improper sample preparation, hemolysis, delayed transit to laboratory, etc. • Not relevant—Abnormality that was not alarming. • Patient condition—Abnormality that was a consequence of the patient's disease, age, etc. • Adverse event—Clinically relevant abnormal value that cannot be explained by the above assessment flags. Adverse Event/Serious Adverse Event CRF was filled in.
Descriptive statistics were used for safety variables.

[2] = subcutaneously administered; cited from earlier work
[3] = Bioavailability and expected plasma concentration of subcutaneously administered C-peptide; assay type: in vivo, human; conditions: low dose 500 nmoL/24 h given 4 times daily
Description: The dose selection is based on data from previous studies, in which C-peptide has been replaced for 3 months (600 nmoL/24 h) and an effect on albumin excretion and sensory nerve conduction velocity has been observed (Johansson et al., 2000; Ekberg et al., 2003). In order to maintain adequate levels of C-peptide for as many hours of the day as possible, the daily dose was divided into four doses, injected subcutaneously using Disetronic Pen 25, and administered in the morning, at lunch, at dinner, and at bedtime. […] To determine if C-peptide at a higher dose has an optimal effect, a 3 times higher dose (1,500 nmoL/24 h) was also administered.
The low-dose regimen was expected to give a mean physiological plasma concentration of ˜1 nmoL/L during the 24 h period. The high dose regimen was expected to result in concentrations ˜3 times those of the low dose regimen. The actual exposure is described in section above on “C-peptide concentrations”. […] The sampling of C-peptide in plasma at visits 2 and 4 coincided with the clinical visit and the time between the most recent administration of the trial drug and sampling varied between patients. Thereby, the results of C-peptide concentrations in plasma became less suitable for pharmacokinetic evaluations.

Question: Which “Changes in clinical laboratory variables” value [1] does the source give for `CC(C)C[C@H](NC(=O)[C@H](C)NC(=O)[C@H](CC(C)C)NC(=O)[C@@H]1CCCN1C(=O)[C@H](CCC(N)=O)NC(=O)[C@H](CC(C)C)NC(=O)[C@H](CO)NC(=O)CNC(=O)[C@H](C)NC(=O)CNC(=O)[C@@H]1CCCN1C(=O)CNC(=O)CNC(=O)CNC(=O)[C@H](CC(C)C)NC(=O)[C@H](CCC(=O)O)NC(=O)[C@@H](NC(=O)[C@H](CCC(N)=O)NC(=O)CNC(=O)[C@@H](NC(=O)[C@H](CCC(N)=O)NC(=O)[C@H](CC(C)C)NC(=O)[C@H](CC(=O)O)NC(=O)[C@H](CCC(=O)O)NC(=O)[C@H](C)NC(=O)[C@@H](N)CCC(=O)O)C(C)C)C(C)C)C(=O)N[C@@H](CCC(=O)O)C(=O)NCC(=O)N[C@@H](CO)C(=O)N[C@@H](CC(C)C)C(=O)N[C@@H](CCC(N)=O)C(=O)O` [C-peptide, Recombinant human C-peptide] here?
Answer: no significant changes in any of the variables

Question: What about the Bioavailability [2] of the same compound?
Answer: approximately 80%

Question: And the “Expected physiological mean plasma concentration” value [3]?
Answer: ~1 nmoL/L
